For one assay, the target named is T1, Adenosine receptor A2b (Homo sapiens, UniProt P29275).
T1 sequence (P29275 whole entry): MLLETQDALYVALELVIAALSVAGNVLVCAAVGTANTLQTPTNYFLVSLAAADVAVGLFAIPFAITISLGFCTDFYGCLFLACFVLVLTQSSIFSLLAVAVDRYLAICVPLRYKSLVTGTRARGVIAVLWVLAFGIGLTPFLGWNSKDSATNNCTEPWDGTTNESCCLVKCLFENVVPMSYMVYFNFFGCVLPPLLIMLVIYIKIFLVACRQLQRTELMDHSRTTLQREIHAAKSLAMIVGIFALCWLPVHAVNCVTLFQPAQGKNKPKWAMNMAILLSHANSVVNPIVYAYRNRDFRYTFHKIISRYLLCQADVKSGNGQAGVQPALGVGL
The assay is described as follows: Inhibition of NECA-induced stimulation of adenylate cyclase at human adenosine A2B receptor. The format is functional.

A further assay deals with T2, Adenosine receptor A3 (Homo sapiens, UniProt P0DMS8).
T2 sequence (P0DMS8 whole entry): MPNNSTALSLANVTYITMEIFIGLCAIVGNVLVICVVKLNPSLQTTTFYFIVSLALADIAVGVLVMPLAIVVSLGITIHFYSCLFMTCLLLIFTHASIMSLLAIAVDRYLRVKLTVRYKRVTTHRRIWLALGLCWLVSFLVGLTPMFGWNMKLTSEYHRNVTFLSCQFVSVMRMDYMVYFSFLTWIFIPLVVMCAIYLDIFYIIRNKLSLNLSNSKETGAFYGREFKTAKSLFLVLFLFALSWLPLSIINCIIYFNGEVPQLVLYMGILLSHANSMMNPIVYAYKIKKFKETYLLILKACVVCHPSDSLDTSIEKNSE
The assay is described as follows: Binding affinity against human adenosine A3 receptor in CHO cell membranes using [3H]NECA.

Assay [1] deals with T3, Adenosine receptor A1 (Rattus norvegicus, UniProt P25099).
T3 sequence (P25099 whole entry): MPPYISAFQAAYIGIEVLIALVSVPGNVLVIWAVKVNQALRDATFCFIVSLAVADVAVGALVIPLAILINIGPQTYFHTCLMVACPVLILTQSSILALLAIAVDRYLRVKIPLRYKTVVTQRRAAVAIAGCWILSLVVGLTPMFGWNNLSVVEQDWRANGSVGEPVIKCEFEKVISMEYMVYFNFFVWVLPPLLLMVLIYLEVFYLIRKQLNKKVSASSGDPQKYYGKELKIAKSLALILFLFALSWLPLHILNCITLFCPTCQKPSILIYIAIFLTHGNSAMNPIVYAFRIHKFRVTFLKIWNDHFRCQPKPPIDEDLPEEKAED
The assay is described as follows: Binding affinity against adenosine A1 receptor of rat without and after pre-incubation with alkaline phosphatase.

Assay [2] addresses T3, Adenosine receptor A1. The assay is described as follows: Binding affinity against adenosine A1 receptor of rat brain cortical membranes using [3H]CHA.
For assay [3], the target named is Adenosine receptor A2a (Rattus norvegicus, UniProt P30543). The assay is described as follows: Binding affinity against adenosine A2A receptor of rat brain striatal membranes using [3H]CGS-21680.
Assay [4] concerns the target T4, Adenosine receptor A1 (Homo sapiens, UniProt P30542).
T4 sequence (P30542 whole entry): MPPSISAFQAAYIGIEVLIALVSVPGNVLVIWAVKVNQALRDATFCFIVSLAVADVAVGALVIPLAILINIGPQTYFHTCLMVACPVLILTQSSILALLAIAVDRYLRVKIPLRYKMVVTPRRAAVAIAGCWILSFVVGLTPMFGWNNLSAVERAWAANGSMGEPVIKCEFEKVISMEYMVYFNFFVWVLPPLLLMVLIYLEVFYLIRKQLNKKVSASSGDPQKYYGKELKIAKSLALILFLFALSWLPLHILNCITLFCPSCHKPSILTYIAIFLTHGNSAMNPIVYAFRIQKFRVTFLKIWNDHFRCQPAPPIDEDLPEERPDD
The assay is described as follows: Binding affinity against human adenosine A1 receptor using [3H]-CCPA (95% confidence).

Assay [5] concerns the target T5, Adenosine receptor A2a (Homo sapiens, UniProt P29274).
Description: Binding affinity against human adenosine A2A receptor using [3H]CGS-21680 (95% confidence)
The target in assay [6] is T5, Adenosine receptor A2a. The source holds these as a separate data set.
Description: Binding affinity against human post-mortem brain adenosine A2A receptor using nuclei caudati and [3H]-CGS-21,680

Molecules are shown by their SMILES. pKi: −log10 of the molar value. Some results are limits rather than exact numbers.

Chain of Adenosine receptor A2a (Rattus norvegicus, UniProt P30543) (P30543 whole entry): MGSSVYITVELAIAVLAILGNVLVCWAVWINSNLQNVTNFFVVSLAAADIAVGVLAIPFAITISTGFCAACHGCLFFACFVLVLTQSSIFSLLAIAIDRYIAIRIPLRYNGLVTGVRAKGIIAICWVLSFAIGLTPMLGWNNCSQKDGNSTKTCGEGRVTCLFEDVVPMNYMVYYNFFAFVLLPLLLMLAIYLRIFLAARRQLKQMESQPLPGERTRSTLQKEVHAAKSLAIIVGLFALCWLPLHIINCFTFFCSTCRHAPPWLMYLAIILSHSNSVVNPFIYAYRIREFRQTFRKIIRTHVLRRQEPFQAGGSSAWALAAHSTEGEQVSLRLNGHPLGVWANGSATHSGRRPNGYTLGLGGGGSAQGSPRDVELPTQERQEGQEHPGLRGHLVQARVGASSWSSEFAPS
T5 sequence (P29274 whole entry): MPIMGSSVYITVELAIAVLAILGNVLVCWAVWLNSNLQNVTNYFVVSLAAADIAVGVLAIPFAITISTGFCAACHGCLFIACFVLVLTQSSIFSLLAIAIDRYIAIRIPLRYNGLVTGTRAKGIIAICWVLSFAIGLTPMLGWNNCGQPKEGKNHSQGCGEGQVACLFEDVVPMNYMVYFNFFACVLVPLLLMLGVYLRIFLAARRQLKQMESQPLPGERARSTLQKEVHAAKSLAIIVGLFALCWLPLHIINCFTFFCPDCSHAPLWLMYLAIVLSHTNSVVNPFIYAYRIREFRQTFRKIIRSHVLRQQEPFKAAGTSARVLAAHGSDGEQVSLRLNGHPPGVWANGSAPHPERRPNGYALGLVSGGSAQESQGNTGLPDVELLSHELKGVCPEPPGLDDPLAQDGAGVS

On to `C#CCn1c(=O)c2c(nc(/C=C/c3cccc(Br)c3)n2C)n(C)c1=O`, for which the pKi on Adenosine receptor A2b and on Adenosine receptor A3 was < 5.00 throughout.
`C#CCn1c(=O)c2c(nc(/C=C/c3cccc(OC)c3)n2C)n(CCCOP(=O)(O)O)c1=O` showed a negative-log Ki (pKi) on Adenosine receptor A1 [1] of 5.95.
On to `C#CCn1c(=O)c2c(nc(/C=C/c3cccc(Br)c3)n2C)n(CCCO)c1=O`, for which the pKi on Adenosine receptor A1 [2] was 6.20; on Adenosine receptor A2a [3], 7.89.
On to `C#CCn1c(=O)c2c(nc(/C=C/c3cccc(O)c3)n2C)n(C)c1=O`, for which the pKi at Adenosine receptor A1 [2] is 6.03; on Adenosine receptor A2a [3] it was 7.68.
The corresponding values for `C#CCn1c(=O)c2c(nc(/C=C/c3cccc(Br)c3)n2C)n(CCO)c1=O` are 5.89 and 7.60.
The corresponding values for `C#CCn1c(=O)c2c(nc(/C=C/c3cccc(N)c3)n2C)n(C)c1=O` are 5.97 and 7.38.
The corresponding values for `C#CCn1c(=O)c2c(nc(/C=C/c3cccc(OC)c3)n2C)n(CCO)c1=O` are 5.98 and 7.41.
For the compound `C#CCn1c(=O)c2c(nc(/C=C/c3cccc(OC)c3)n2C)n(C)c1=O`, the pKi on Adenosine receptor A1 [2] is 5.89; on Adenosine receptor A2a [3] it was 7.92.
For the compound `C#CCn1c(=O)c2c(nc(/C=C/c3cccc(OC)c3)n2C)n(CCCO)c1=O`, the negative logarithm of the Ki (pKi) at Adenosine receptor A2b is < 5.00; on Adenosine receptor A1 [2], 6.05; on Adenosine receptor A1 [4] it was 5.60; on Adenosine receptor A3, < 5.00; at Adenosine receptor A2a [3], 8.10; at Adenosine receptor A2a [5], 8.30. Moreover, the pKi on Adenosine receptor A2a [6] was 7.82.
